Measured values published in patent publication US10961238B2, “Modulators of hedgehog (Hh) signaling pathway” (E-THERAPEUTICS PLC, priority 2016, dated 2021).

Tested on: C3H10T1/2 cells
Experiment: C3H assay: differentiation of C3H10T1/2 cells by mSHH, measurement of alkaline phosphatase
Format: cell-based, mouse
Conditions: Mus musculus, C3H 10T1/2; C3H10T1/2 cells stimulated with mSHH for 72 hours; alkaline phosphatase activity; read-out: IC50 Ranges

| SMILES | IC50 [µM] |
| --- | --- |
| C[C@H]1CC(c2c[nH]c3ncccc23)CCN1S(=O)(=O)C1CN(C(=O)OC(C)(C)C)C1 (mixture of isomers) [Compound 45, tert-butyl 3-[(2R)-2-methyl-4-(1H-pyrrolo[2,3-b]pyridin-3-yl)piperidin-1-yl]sulfonylaze-tidine-1-carboxylate] | 0.01 to 0.1 |
| CN(C)CC(C)(C)OC(=O)N1CCC(S(=O)(=O)N2CCC(c3c[nH]c4ncccc34)CC2)C1 (racemic) [Compound 147, [1-(dimethylamino)-2-methylpropan-2-yl]3-[4-(1H-pyrrolo[2,3-b]pyridin-3-yl)piperidin-1-yl]sulfonylpyrr olidine-1-carboxylate] | 0.01 to 0.1 |
| CC(C)C(CO)NC(=O)N1CCC(S(=O)(=O)N2CCC(c3c[nH]c4ncccc34)CC2)C1 (racemic) [Compound 149, N-(1-hydroxy-3-methylbutan-2-yl)-3-[4-(1H-pyrrolo[2,3-b]pyridin-3-yl)piperidin-1-yl]sulfonylpyrr olidine-1-carboxamide] | 0.01 to 0.1 |
| CC(C)(C)OC(=O)N1CCC(S(=O)(=O)N2CCC(c3c[nH]c4ncccc34)CC2)C1 (racemic) [Compound 150, tert-butyl 3-[4-(1H-pyrrolo[2,3-b]pyridin-3-yl)piperidin-1-yl]sulfonylpyrr olidine-1-carboxylate] | 0.01 to 0.1 |
| O=S(=O)(C1CCN(c2ccccn2)C1)N1CCC(c2c[nH]c3ncccc23)CC1 (racemic) [Compound 244, 3-[1-(1-pyridin-2-ylpyrrolidin-3-yl)sulfonylpiper-idin-4-yl]-1H-pyrrolo[2,3-b]pyridine] | 0.1 to 1 |
| O=S(=O)(C1CCNC1)N1CCC(c2c[nH]c3ncccc23)CC1 (racemic) [Compound 249, 3-[1-(pyrrolidin-3-yl)sulfonylpiper-idin-4-yl]-1H-pyrrolo[2,3-b]pyridine] | 1 to 10 |
| CC(C)(C)OC(=O)N1CCC(S(=O)(=O)N2CCC(c3ccncc3)CC2)C1 (racemic) [Compound 269, tert-butyl 3-(4-pyridin-4-ylpiperidin-1-yl)sulfonylpyrrolidine-1-carboxylate] | 0.1 to 1 |
| CN(C(=O)N1CCC(S(=O)(=O)N2CCC(c3ccncc3)CC2)C1)C(C)(C)C (racemic) [Compound 271, N-tert-butyl-N-methyl-3-(4-pyridin-4-ylpiperidin-1-yl)sulfonylpyrr olidine-1-carboxamide] | 0.1 to 1 |
| CC(C)[C@H](CO)NC(=O)N1CC(S(=O)(=O)N2CCC(c3ccc(F)cc3)CC2)C1 (racemic) [Compound 344, 3-[4-(4-fluorophenyl)piperidin-1-yl]sulfonyl-N-[1-hydroxy-3-methylbutan-2-yl] azetidine-1-carboxamide] | 0.1 to 1 |
| CC(C)C(CO)NC(=O)N1CC(S(=O)(=O)N2CCC(c3ccc(C#N)cc3)CC2)C1 (racemic) [Compound 348, 3-[4-(4-cyanophenyl)piperidin-1-yl]sulfonyl-N-[1-hydroxy-3-methylbutan-2-yl]azetidine-1-carboxamide] | 0.1 to 1 |
| CC(C)(C)OC(=O)N1CC(S(=O)(=O)N2CCC(c3c[nH]c4ncc(F)cc34)CC2)C1 [Compound 1, tert-butyl 3[4-(5-fluoro-1H-pyrrolo[2,3-b]pyridin-3-yl)piperidin-1-yl]sulfonylaze-tidine-1-carboxylate] | 0.1 to 1 |
| Cc1cnc2[nH]cc(C3CCN(S(=O)(=O)C4CN(C(=O)OC(C)(C)C)C4)CC3)c2c1 [Compound 2, tert-butyl 3-[4-(5-methyl-1H-pyrrolo[2,3-b]pyridin-3-yl)piperidin-1-yl] sulfonylaze-tidine-1-carboxylate] | 1 to 10 |
| CC(C)(C)OC(=O)N1CC(S(=O)(=O)N2CCC(c3cncn3Cc3ccccc3)CC2)C1 [Compound 3, tert-butyl 3-[4-(3-benzylimidazol-4-yl)piperidin-1-yl]sulfonylaze-tidine-1-carboxylate] | 0.1 to 1 |
| CC(C)(C)OC(=O)N1CCn2c(C3CCN(S(=O)(=O)C4CN(C(=O)OC(C)(C)C)C4)CC3)cnc2C1 [Compound 4, tert-butyl 3-[1-[1-[(2-methylpropan-2-yl)oxycarbonyl]azetidin-3-yl]sulfonylpiper-idin-4-yl]-6,8-dihydro-5H-imidazo[1,2-a]pyrazine-7-carboxylate] | 1 to 10 |
| CC(C)(C)OC(=O)N1CC(S(=O)(=O)N2CCC(c3cnc4n3CCC4)CC2)C1 [Compound 5, tert-butyl 3-[4-(6,7-dihydro-5H-pyrrolo[1,2-a]imidazol-3-yl)piperidin-1-yl]sulfonylaze-tidine-1-carboxylate] | 1 to 10 |
| COc1ccc(C2CCN(S(=O)(=O)C3CN(C(=O)OC(C)(C)C)C3)CC2)cc1 [Compound 6, tert-butyl 3-[4-(4-methoxyphenyl)piperidin-1-yl]sulfonylaze-tidine-1-carboxylate] | 0.1 to 1 |
| CC(C)(C)OC(=O)N1CCC(S(=O)(=O)N2CCC(c3ccnc4[nH]ccc34)CC2)CC1 [Compound 7, tert-butyl 4-[4-(1H-pyrrolo[2,3-b]pyridin-4-yl)piperidin-1-yl]sulfonylpiper-idine-1-carboxylate] | 0.1 to 1 |
| Cc1ccc(S(=O)(=O)n2ccc3c(C4CCN(S(=O)(=O)C5CCN(C(=O)OC(C)(C)C)CC5)CC4)ccnc32)cc1 [Compound 8, tert-butyl 4-[4-[1-(4-methylphenyl)-sulfonylpyrrolo[2,3-b]pyridin-4-yl]piperidin-1-yl]sulfonylpiper-idine-1-carboxylate] | 0.01 to 0.1 |

| SMILES | IC50 [µM] |
| --- | --- |
| Cc1ccc(C2CCN(S(=O)(=O)C3CCN(C(=O)OC(C)(C)C)CC3)CC2)c(C)c1 [Compound 9, tert-butyl 4-[4-(2,4-dimethylphenyl)piperidin-1-yl]sulfonylpiper-idine-1-carboxylate] | 1 to 10 |
| CC(C)(C)OC(=O)N1CCC(S(=O)(=O)N2CCC(c3ncnc4[nH]ccc34)CC2)CC1 [Compound 10, tert-butyl 4-[4-(7H-pyrrolo[2,3-d]pyrimidin-4-yl)piperidin-1-yl]sulfonylpiper-idine-1-carboxylate] | 1 to 10 |
| CC(C)(C)OC(=O)N1CCC(S(=O)(=O)N2CCC(c3ccnc4ccccc34)CC2)CC1 [Compound 11, tert-butyl 4-(4-quinolin-4-ylpiperidin-1-yl)sulfonylpiper-idine-1-carboxylate] | 0.1 to 1 |
| Cc1ccc(S(=O)(=O)n2ccc3c(C4CCN(S(=O)(=O)C5CCN(C(=O)OC(C)(C)C)CC5)CC4)ncnc32)cc1 [Compound 12, tert-butyl 4-[4-[7-(4-methylphenyl)-sulfonylpyrrolo[2,3-d]pyrimidin-4-yl]piperidin-1-yl]sulfonylpiper-idine-1-carboxylate] | 0.1 to 1 |
| COc1ccc(C2CCN(S(=O)(=O)C3CCN(C(=O)OC(C)(C)C)CC3)CC2)cc1 [Compound 13, tert-butyl 4-[4-(4-methoxyphenyl)piperidin-1-yl]sulfonylpiper-idine-1-carboxylate] | 0.1 to 1 |
| CC(C)(C)OC(=O)N1CCC(S(=O)(=O)N2CCC(c3ccccc3)CC2)CC1 [Compound 14, tert-butyl 4-(4-phenylpiperidin-1-yl)sulfonylpiper-idine-1-carboxylate] | 0.1 to 1 |
| COC(=O)c1cnc2[nH]cc(C3CCN(S(=O)(=O)C4CN(C(=O)OC(C)(C)C)C4)CC3)c2c1 [Compound 15, methyl 3-[1-[1-[(2-methylpropan-2-yl)oxycarbonyl]azetidin-3-yl]sulfonylpiper-idin-4-yl]-1H-pyrrolo[2,3-b]pyridine-5-carboxylate] | 1 to 10 |
| CC(C)(C)OC(=O)N1CC(S(=O)(=O)N2CCC(c3csc4cccnc34)CC2)C1 [Compound 17, tert-butyl 3-(4-thieno[3,2-b]pyridin-3-ylpiperidin-1-yl)sulfonylaze-tidine-1-carboxylate] | 0.01 to 0.1 |
| CC(C)(C)OC(=O)N1CCC(S(=O)(=O)N2CCC(c3csc4cccnc34)CC2)CC1 [Compound 18, tert-butyl 4-(4-thieno[3,2-b]pyridin-3-ylpiperidin-1-yl)sulfonylpiper-idine-1-carboxylate] | 0.01 to 0.1 |
| CC(C)(C)OC(=O)N1CCC(S(=O)(=O)N2CCC(c3c[nH]c4ncccc34)CC2)CC1 [Compound 19, tert-butyl 4-[4-(1H-pyrrolo[2,3-b]pyridin-3-yl)piperidin-1-yl]sulfonylpiper-idine-1-carboxylate] | 0.01 to 0.1 |
| CC(C)(C)OC(=O)N1CCC(S(=O)(=O)N2CCC(C3CCOCC3)CC2)CC1 [Compound 20, tert-butyl 4-[4-(oxan-4-yl)piperidin-1-yl]sulfonylpiper-idine-1-carboxylate] | 1 to 10 |
| O=C(Nc1ccccc1)N1CCC(S(=O)(=O)N2CCC(c3ccncc3)CC2)CC1 [Compound 21, N-phenyl-4-(4-pyridin-4-ylpiperidin-1-yl)sulfonylpiper-idine-1-carboxamide] | 1 to 10 |
| CC(C)(C)OC(=O)N1CC(S(=O)(=O)N2CCC(c3ccncc3)CC2)C1 [Compound 22, tert-butyl 3-(4-pyridin-4-ylpiperidin-1-yl)sulfonylaze-tidine-1-carboxylate] | 0.1 to 1 |
| CC(C)(C)OC(=O)N1CCC(S(=O)(=O)N2CCC(c3ccncc3)CC2)CC1 [Compound 23, tert-butyl 4-(4-pyridin-4-ylpiperidin-1-yl)sulfonylpiper-idine-1-carboxylate] | 0.1 to 1 |
| CC(C)C(CO)NC(=O)N1CC(S(=O)(=O)N2CCC(c3ccncc3)CC2)C1 (stereo not drawn) [Compound 24, 3-(4-pyridin-4-ylpiperidin-1-yl)sulfonyl-N-[1-hydroxy-3-methylbutan-2-yl]azetidine-1-carboxamide] | 0.1 to 1 |
| Cc1noc(C)c1NC(=O)N1CC(S(=O)(=O)N2CCC(c3cccnn3)CC2)C1 [Compound 25, N-(3,5-dimethyl-1,2-oxazol-4-yl)-3-(4-pyridazin-3-ylpiperidin-1-yl)sulfonylaze-tidine-1-carboxamide] | 1 to 10 |
| COc1ccccc1OC(=O)N1CC(S(=O)(=O)N2CCC(c3ccncc3)CC2)C1 [Compound 27, (2-methoxyphenyl) 3-(4-pyridin-4-ylpiperidin-1-yl)sulfonylaze-tidine-1-carboxylate] | 0.01 to 0.1 |
| COC1CCC(OC(=O)N2CC(S(=O)(=O)N3CCC(c4ccncc4)CC3)C2)CC1 (stereo not drawn) [Compound 28, (4-methoxycyclo-hexyl) 3-(4-pyridin-4-9-ylpiperidin-1-yl)sulfonylaze-tidine-1-carboxylate] | 0.1 to 1 |
